Measurements reported in the NIST ThermoML archive (doi:10.1021/je8001255).

Test: an = ratio of the nth substance listed, in mol/kg
Conditions: 100 kPa, Liquid; for electrical conductivity: Alternating current cell with electrodes

O=S(=O)([O-])[O-].[Cu+2] [copper sulfate] + O
Conditions	electrical conductivity, 278.15 K [S/m]	electrical conductivity, 283.15 K [S/m]	electrical conductivity, 288.15 K [S/m]	electrical conductivity, 293.15 K [S/m]	electrical conductivity, 298.15 K [S/m]	electrical conductivity, 303.15 K [S/m]	electrical conductivity, 308.15 K [S/m]	mass density, 298.15 K [kg/m3]
a1 = 0.00666	0.0666	0.0763	0.0863	0.0965	0.107	0.117	0.128	998.16
a1 = 0.02534	0.196	0.224	0.253	0.282	0.311	0.34	0.369	1001.26
a1 = 0.04942	0.319	0.365	0.412	0.459	0.506	0.553	0.598	1005.23
a1 = 0.09691	0.543	0.621	0.7	0.78	0.86	0.938	1.01	1013.09
a1 = 0.2535	1.17	1.34	1.51	1.68	1.85	2.02	2.19	1039.39
a1 = 0.3778	1.61	1.84	2.07	2.31	2.54	2.78	3	1060.88
a1 = 0.4881	1.95	2.23	2.52	2.81	3.1	3.39	3.68	1080.51
a1 = 0.6806	2.49	2.85	3.23	3.6	3.99	4.37	4.74	1115.98
a1 = 0.7935	2.75	3.15	3.57	4	4.43	4.87	5.29	1137.68
a1 = 0.9197	3	3.45	3.92	4.4	4.88	5.37	5.85	1162.72
a1 = 1.037	3.22	3.7	4.21	4.73	5.25	5.79	6.32	1186.79
a1 = 1.138	3.34	3.85	4.39	4.94	5.51	6.08	6.66	1208.14
a1 = 1.198	3.4	3.93	4.48	5.06	5.64	6.24	6.83	1220.58

O=S(=O)([O-])[O-].[Cd+2] [cadmium sulfate] + O
Conditions	electrical conductivity, 278.15 K [S/m]	electrical conductivity, 283.15 K [S/m]	electrical conductivity, 288.15 K [S/m]	electrical conductivity, 293.15 K [S/m]	electrical conductivity, 298.15 K [S/m]	electrical conductivity, 303.15 K [S/m]	electrical conductivity, 308.15 K [S/m]	mass density, 298.15 K [kg/m3]
a1 = 0.00493	0.0507	0.0583	0.0658	0.0734	0.0813	0.0892	0.0972	998.06
a1 = 0.01043	0.092	0.105	0.119	0.132	0.146	0.16	0.174	999.18
a1 = 0.0299	0.209	0.239	0.269	0.298	0.328	0.358	0.387	1003.14
a1 = 0.0514	0.319	0.364	0.409	0.454	0.499	0.544	0.587	1007.53
a1 = 0.1001	0.537	0.612	0.687	0.761	0.836	0.91	0.981	1017.5
a1 = 0.2017	0.93	1.06	1.19	1.32	1.44	1.57	1.69	1038.74
a1 = 0.4092	1.61	1.83	2.05	2.27	2.49	2.71	2.92	1084.21
a1 = 0.6014	2.13	2.42	2.72	3.01	3.31	3.6	3.89	1129.51
a1 = 0.8202	2.6	2.97	3.33	3.7	4.07	4.43	4.8	1185.1
a1 = 1.001	2.96	3.38	3.79	4.21	4.63	5.05	5.47	1234.43
a1 = 1.209	3.1	3.56	4.01	4.47	4.95	5.42	5.9	1295.86
a1 = 1.378	3.16	3.63	4.11	4.6	5.1	5.61	6.12	1349.9
a1 = 1.486	3.13	3.62	4.11	4.61	5.12	5.65	6.18	1385.75
a1 = 1.609	3.04	3.53	4.02	4.53	5.06	5.6	6.14	1429.78
a1 = 1.798	2.8	3.28	3.77	4.28	4.81	5.36	5.91	1500.75
a1 = 1.939	2.53	2.99	3.46	3.95	4.47	5	5.55	1556.84

O=S(=O)([O-])[O-].[Zn+2] [zinc sulfate] + O
Conditions	electrical conductivity, 278.15 K [S/m]	electrical conductivity, 283.15 K [S/m]	electrical conductivity, 288.15 K [S/m]	electrical conductivity, 293.15 K [S/m]	electrical conductivity, 298.15 K [S/m]	electrical conductivity, 303.15 K [S/m]	electrical conductivity, 308.15 K [S/m]	mass density, 298.15 K [kg/m3]
a1 = 0.00628	0.0627	0.072	0.0816	0.0916	0.102	0.112	0.122	998.09
a1 = 0.02608	0.204	0.233	0.264	0.295	0.327	0.359	0.391	1001.41
a1 = 0.05064	0.333	0.382	0.432	0.483	0.534	0.585	0.638	1005.55
a1 = 0.1023	0.581	0.666	0.753	0.841	0.931	1.02	1.11	1014.14
a1 = 0.2077	1.02	1.17	1.32	1.48	1.63	1.79	1.94	1031.96
a1 = 0.4748	1.92	2.2	2.49	2.79	3.09	3.38	3.68	1078.96
a1 = 0.7453	2.62	3	3.4	3.81	4.23	4.65	5.07	1129.79
a1 = 0.9563	3.01	3.46	3.85	4.41	4.91	5.41	5.91	1171.99
a1 = 1.191	3.27	3.78	4.31	4.86	5.42	6	6.57	1221.75
a1 = 1.298	3.34	3.87	4.42	5	5.59	6.19	6.8	1250.72
a1 = 1.489	3.32	3.87	4.45	5.05	5.68	6.32	6.97	1293.66
a1 = 1.623	3.22	3.77	4.35	4.96	5.6	6.25	6.92	1326.7
a1 = 1.826	2.96	3.49	4.07	4.68	5.32	5.99	6.67	1377.89

O=S(=O)([O-])[O-].[Ni+2] [nickel monosulfate] + O
Conditions	electrical conductivity, 278.15 K [S/m]	electrical conductivity, 283.15 K [S/m]	electrical conductivity, 288.15 K [S/m]	electrical conductivity, 293.15 K [S/m]	electrical conductivity, 298.15 K [S/m]	electrical conductivity, 303.15 K [S/m]	electrical conductivity, 308.15 K [S/m]	mass density, 298.15 K [kg/m3]
a1 = 0.006	0.0606	0.0696	0.079	0.0886	0.0984	0.108	0.119	998.02
a1 = 0.02566	0.192	0.221	0.25	0.28	0.31	0.341	0.372	1001.23
a1 = 0.04922	0.321	0.368	0.417	0.467	0.517	0.568	0.618	1005.09
a1 = 0.122	0.656	0.753	0.852	0.954	1.06	1.16	1.26	1017.09
a1 = 0.25	1.18	1.36	1.54	1.72	1.91	2.09	2.28	1038.54
a1 = 0.3674	1.55	1.78	2.01	2.25	2.5	2.75	2.99	1058.67
a1 = 0.4988	1.94	2.23	2.52	2.83	3.14	3.45	3.76	1081.77
a1 = 0.68	2.39	2.75	3.12	3.51	3.9	4.29	4.63	1114.8
a1 = 0.7969	2.64	3.04	3.45	3.88	4.31	4.75	5.19	1136.9
a1 = 1.022	2.99	3.46	3.94	4.44	4.95	5.47	5.99	1181.4
a1 = 1.156	3.13	3.62	4.13	4.67	5.22	5.77	6.34	1208.94
a1 = 1.394	3.21	3.73	4.29	4.87	5.47	6.08	6.7	1260.5
a1 = 1.601	3.11	3.64	4.2	4.8	5.42	6.06	6.7	1308
a1 = 1.783	2.89	3.42	3.99	4.59	5.22	5.86	6.53	1351.92

O=S(=O)([O-])[O-].[Mn+2] [manganese(II) sulfate] + O
Conditions	electrical conductivity, 278.15 K [S/m]	electrical conductivity, 283.15 K [S/m]	electrical conductivity, 288.15 K [S/m]	electrical conductivity, 293.15 K [S/m]	electrical conductivity, 298.15 K [S/m]	electrical conductivity, 303.15 K [S/m]	electrical conductivity, 308.15 K [S/m]	mass density, 298.15 K [kg/m3]
a1 = 0.00499	0.0524	0.06	0.068	0.0761	0.0844	0.0928	0.101	997.79
a1 = 0.00999	0.0922	0.106	0.119	0.134	0.148	0.162	0.177	998.55
a1 = 0.01997	0.16	0.183	0.207	0.231	0.255	0.279	0.303	1000.02
a1 = 0.05028	0.333	0.38	0.428	0.477	0.526	0.575	0.622	1004.5
a1 = 0.1005	0.575	0.656	0.739	0.822	0.905	0.987	1.07	1011.91
a1 = 0.1991	1.01	1.15	1.29	1.44	1.58	1.72	1.86	1026.55
a1 = 0.3159	1.39	1.59	1.78	1.98	2.18	2.37	2.56	1044.23
a1 = 0.4963	1.93	2.2	2.47	2.75	3.03	3.3	3.57	1072.29
a1 = 0.7442	2.5	2.85	3.21	3.57	3.93	4.29	4.65	1112.53
a1 = 0.9865	2.95	3.36	3.79	4.22	4.65	5.08	5.5	1153.87
a1 = 1.208	3.07	3.51	3.97	4.44	4.91	5.38	5.85	1194.32
a1 = 1.384	3.1	3.57	4.04	4.53	5.03	5.52	6.02	1227.02
a1 = 1.653	2.98	3.44	3.93	4.43	4.95	5.46	5.98	1280.18
a1 = 1.826	2.78	3.25	3.72	4.21	4.72	5.23	5.75	1318.47
a1 = 2.082	2.41	2.84	3.29	3.76	4.25	4.74	5.24	1371.35
a1 = 2.189	2.19	2.6	3.02	3.47	3.93	4.41	4.89	1398.09
a1 = 2.434	1.6	1.93	2.28	2.66	3.06	3.48	3.9	1452.93
